Reference: patent US11180452B2, “Methods and compositions for selectively inhibiting pathogenic microbes” (priority 2019, dated 2021)
In brackets after ≈: the same amount, converted by molar mass. Several values for one entry are separate records, joined by “and”; a condition that tells them apart may be missing. Equal entries are not always repeated. Where two headings read alike, the source gives them in different places.

Experiments:
Trichophyton rubrum = assay: MIC against Trichophyton rubrum; format: cell-based; conditions: Trichophyton rubrum Castellani Sabouraud ATCC: 28188; read-out: MIC
NoSpin HepaRG cells = assay: HepaRG cytotoxicity, MTT assay EC50; format: cell-based, human; conditions: Homo sapiens, HepaRG; cytotoxicity EC50, Table 9
Experimental: Additionally, the antimicrobial compounds were analyzed for cytotoxicity. […] We utilized the standard MTT assay (Promega CellTiter 96) and GraphPad Prism 7 software to determine EC50 values for each analogue. Briefly, 20,000 HepG2 cells in 200 μl of the ATCC recommended media were seeded in each well of a 96-well plate with a moisture barrier created in the outermost wells. The cells were allowed to attach overnight at 37° C., and then observed under phase contrast microscopy for proper morphological characteristics. […] Once incubations were complete, the spectrophotometric absorbance of the samples was measured at a wavelength of 595 nm. […] For the HepaRG assay, NoSpin HepaRG™ cells (Lonza, cat #NSHPRG) were thawed and plated with 20,000 cells per well. They were allowed to attach for 4 h (optimal DME profile per Lonza's testing) before dosing following the identical protocol as above.

Bacillus subtilis = Bacillus subtilis MIC / MBC; format: cell-based; conditions: for MBC: Bacillus subtilis NRRL: B-571, minimum bactericidal concentration; for MIC: Bacillus subtilis
Bacillus thuringiensis = format: cell-based; conditions: Bacillus thuringiensis Berliner ATCC: 10792; for MIC: Bacillus thuringiensis, read-out: MIC
[1] = system: Burkholderia thailandensis Brett et al ATCC: 700388; assay: microbe, parasite or virus in culture; format: cell-based
Candida glabrata = Candida glabrata MIC / MFC; format: cell-based; conditions: Nakaseomyces glabratus, Candida glabrata #584 (Table 2); for MFC: minimum fungicidal concentration, read-out: MFC; for MIC: read-out: MIC
[2] = system: Francisella tularensis subsp. Holarctica Strain LVSR NR-597; assay: microbe, parasite or virus in culture; format: cell-based
N. gonorrhoeae = N. gonorrhoeae MIC; format: cell-based; conditions: Neisseria gonorrhoeae
[3] = system: Francisella tularensis strains; assay: microbe, parasite or virus in culture; format: cell-based
[4] = Toxicity in mice, body weight over 7 days; format: in vivo, Balb/c mice; conditions: for Animal body weight (kg) Day 0 / Animal body weight (kg) Day 1 / Animal body weight (kg) Day 2 / Animal body weight (kg) Day 3 / Animal body weight (kg) Day 4 / Animal body weight (kg) Day 5 / Animal body weight (kg) Day 6 / Animal body weight (kg) Day 7: mice, IP; for Animal body weight (kg) Day 0: Day 0, individual animals; for Animal body weight (kg) Day 1: Day 1, individual animals; for Animal body weight (kg) Day 2: Day 2, individual animals; for Animal body weight (kg) Day 3: Day 3, individual animals; for Animal body weight (kg) Day 4: Day 4, individual animals; for Animal body weight (kg) Day 5: Day 5, individual animals; for Animal body weight (kg) Day 6: Day 6, individual animals; for Animal body weight (kg) Day 7: Day 7, individual animals
Text: The vehicle is 40% PEG300 solution in 0.9% NaCl. […] Thus, the compounds are useful for in vivo antimicrobial administration.

[5] = Bacillus subtilis (Ehrenberg 1835) Cohn 1872 NRRL: B-571, read-out: MIC
[6] = read-out: F. tularensis BSL-3 MIC, Strain 100
[7] = read-out: F. tularensis BSL-3 MIC, strain HN-63
[8] = read-out: F. tularensis BSL-3 MIC, strain LVS
[9] = read-out: F. tularensis BSL-3 MIC, strain MA00-2987
[10] = read-out: F. tularensis BSL-3 MIC, strain MO #1
[11] = read-out: F. tularensis BSL-3 MIC, strain MO #2
[12] = read-out: F. tularensis BSL-3 MIC, strain MO #3
[13] = read-out: F. tularensis BSL-3 MIC, strain OR-96
[14] = read-out: F. tularensis BSL-3 MIC, strain SCHU S4
[15] = read-out: F. tularensis BSL-3 MIC, strain WY-96
[16] = read-out: MAX, highest MIC over the Francisella tularensis strains
[17] = read-out: MIN, lowest MIC over the Francisella tularensis strains

COc1ccc2[nH]cc(Sc3ccc(Br)cc3)c2c1 [Compound 172E, 3-((4-bromophenyl)thio)-5-methoxy-1H-indole]
MIC (Trichophyton rubrum): 2.08 µg/mL (≈ 6.22 µM)
EC50 (NoSpin HepaRG cells): 23.3 µg/mL (≈ 69.7 µM)
MBC (Bacillus subtilis): 6.25 µg/mL (≈ 18.7 µM)
MIC (Bacillus subtilis; [5]): 1.56 µg/mL (≈ 4.67 µM)
MBC (Bacillus thuringiensis): 12.5 µg/mL (≈ 37.4 µM)
MIC (Bacillus thuringiensis): 1.56 µg/mL (≈ 4.67 µM)
MIC [1]: > 50 µg/mL
MFC (Candida glabrata): > 50 µg/mL
MIC (Candida glabrata): 6.25 µg/mL (≈ 18.7 µM)
MIC [2]: 0.78 µg/mL (≈ 2.33 µM)
MIC (N. gonorrhoeae; strain #167): < 0.39 µg/mL
MIC (N. gonorrhoeae; strain #203): 3.13 µg/mL (≈ 9.36 µM)
MIC (N. gonorrhoeae; strain #205): 3.13 µg/mL (≈ 9.36 µM)
MIC50 [3]: 8 µg/mL (≈ 23.9 µM)
MIC [3, 6]: > 8 µg/mL
MIC [3, 7]: 8 µg/mL (≈ 23.9 µM)
MIC [3, 8]: > 8 µg/mL
MIC [3, 9]: 8 µg/mL (≈ 23.9 µM)
MIC [3, 10]: 5.33 µg/mL (≈ 15.9 µM)
MIC [3, 11]: 3.33 µg/mL (≈ 9.96 µM)
MIC [3, 12]: 8 µg/mL (≈ 23.9 µM)
MIC [3, 13]: 8 µg/mL (≈ 23.9 µM)
MIC [3, 14]: 4 µg/mL (≈ 12 µM)
MIC [3, 15]: > 8 µg/mL
MIC [3, 16]: > 8 µg/mL
MIC [3, 17]: 3.33 µg/mL (≈ 9.96 µM)

Oc1ccccc1Sc1c[nH]c2ccc(Br)cc12 [Compound 174AI, 2-((5-bromo-1H-indol-3-yl)thio)phenol]
EC50 (NoSpin HepaRG cells): 27.4 µg/mL (≈ 85.6 µM)
MBC (Bacillus subtilis): 6.25 µg/mL (≈ 19.5 µM)
MIC (Bacillus subtilis; [5]): 0.78 µg/mL (≈ 2.44 µM)
MIC (Bacillus subtilis; strain B-571 (Table 4), read-out: Bacillus subtilis MIC): 0.78 µg/mL (≈ 2.44 µM)
MIC (Bacillus subtilis; strain B-1985, read-out: Bacillus subtilis MIC): 0.78 µg/mL (≈ 2.44 µM)
MIC (Bacillus subtilis; strain B-3665, read-out: Bacillus subtilis MIC): 6.25 µg/mL (≈ 19.5 µM)
MIC (Bacillus subtilis; strain B-14322, read-out: Bacillus subtilis MIC): 3.13 µg/mL (≈ 9.77 µM)
MIC (Bacillus subtilis; strain B-41090, read-out: Bacillus subtilis MIC): 6.25 µg/mL (≈ 19.5 µM)
MIC (Bacillus subtilis; strain B-41581, read-out: Bacillus subtilis MIC): 6.25 µg/mL (≈ 19.5 µM)
MIC (Bacillus subtilis; strain BD-594, read-out: Bacillus subtilis MIC): 6.25 µg/mL (≈ 19.5 µM)
MBC (Bacillus thuringiensis): > 50 µg/mL
MIC (Bacillus thuringiensis): 0.78 µg/mL (≈ 2.44 µM)
MBC [1]: > 50 µg/mL
MIC [1]: 12.5 µg/mL (≈ 39 µM)
MFC (Candida glabrata): 25 µg/mL (≈ 78.1 µM)
MIC (Candida glabrata): 6.25 µg/mL (≈ 19.5 µM)
MIC [2]: 2 µg/mL (≈ 6.25 µM)
MIC (N. gonorrhoeae; strain #167): < 0.39 µg/mL
MIC50 [3]: 3 µg/mL (≈ 9.37 µM)
MIC [3, 6]: 6 µg/mL (≈ 18.7 µM)
MIC [3, 7]: 2 µg/mL (≈ 6.25 µM)
MIC [3, 8]: 4 µg/mL (≈ 12.5 µM)
MIC [3, 9]: 1.67 µg/mL (≈ 5.22 µM)
MIC [3, 10]: 1.33 µg/mL (≈ 4.15 µM)
MIC [3, 11]: 1.33 µg/mL (≈ 4.15 µM)
MIC [3, 12]: 2 µg/mL (≈ 6.25 µM)
MIC [3, 13]: 4 µg/mL (≈ 12.5 µM)
MIC [3, 14]: 4 µg/mL (≈ 12.5 µM)
MIC [3, 15]: 6 µg/mL (≈ 18.7 µM)
MIC [3, 16]: 6 µg/mL (≈ 18.7 µM)
MIC [3, 17]: 1.33 µg/mL (≈ 4.15 µM)
toxicity in mice by body weight ([4]; 6-week-old Balb/c mice, body weight over 7 days, vehicle 40% PEG300 in 0.9% NaCl): did not have significant toxicity
Animal body weight (kg) Day 0 ([4]; 0.1 mg/kg, 0.1 mg/kg): 0.023 kg (2×) and 0.022 kg
Animal body weight (kg) Day 1 ([4]; 0.1 mg/kg, 0.1 mg/kg): 0.022 kg (2×) and 0.021 kg
Animal body weight (kg) Day 2 ([4]; 0.1 mg/kg, 0.1 mg/kg): 0.023 kg and 0.022 kg and 0.021 kg
Animal body weight (kg) Day 3 ([4]; 0.1 mg/kg, 0.1 mg/kg): 0.024 kg and 0.022 kg (2×)
Animal body weight (kg) Day 4 ([4]; 0.1 mg/kg, 0.1 mg/kg): 0.024 kg and 0.022 kg (2×)
Animal body weight (kg) Day 5 ([4]; 0.1 mg/kg, 0.1 mg/kg): 0.024 kg and 0.022 kg (2×)
Animal body weight (kg) Day 6 ([4]; 0.1 mg/kg, 0.1 mg/kg): 0.024 kg and 0.022 kg (2×)
Animal body weight (kg) Day 7 ([4]; 0.1 mg/kg, 0.1 mg/kg): 0.023 kg (2×) and 0.022 kg
Animal body weight (kg) Day 0 ([4]; 1 mg/kg, 1 mg/kg): 0.022 kg and 0.024 kg and 0.026 kg
Animal body weight (kg) Day 1 ([4]; 1 mg/kg, 1 mg/kg): 0.023 kg and 0.024 kg and 0.026 kg
Animal body weight (kg) Day 2 ([4]; 1 mg/kg, 1 mg/kg): 0.023 kg and 0.025 kg and 0.026 kg
Animal body weight (kg) Day 3 ([4]; 1 mg/kg, 1 mg/kg): 0.023 kg and 0.025 kg and 0.027 kg
Animal body weight (kg) Day 4 ([4]; 1 mg/kg, 1 mg/kg): 0.022 kg and 0.025 kg and 0.026 kg
Animal body weight (kg) Day 5 ([4]; 1 mg/kg, 1 mg/kg): 0.022 kg and 0.025 kg and 0.026 kg
Animal body weight (kg) Day 6 ([4]; 1 mg/kg, 1 mg/kg): 0.022 kg and 0.024 kg and 0.026 kg
Animal body weight (kg) Day 7 ([4]; 1 mg/kg, 1 mg/kg): 0.022 kg and 0.024 kg and 0.026 kg
Animal body weight (kg) Day 0 ([4]; 10 mg/kg, 10 mg/kg): 0.022 kg and 0.026 kg and 0.024 kg
Animal body weight (kg) Day 1 ([4]; 10 mg/kg, 10 mg/kg): 0.021 kg and 0.024 kg and 0.022 kg
Animal body weight (kg) Day 2 ([4]; 10 mg/kg, 10 mg/kg): 0.022 kg and 0.024 kg and 0.023 kg
Animal body weight (kg) Day 3 ([4]; 10 mg/kg, 10 mg/kg): 0.022 kg and 0.025 kg and 0.023 kg
Animal body weight (kg) Day 4 ([4]; 10 mg/kg, 10 mg/kg): 0.022 kg and 0.026 kg and 0.024 kg
Animal body weight (kg) Day 5 ([4]; 10 mg/kg, 10 mg/kg): 0.023 kg and 0.026 kg and 0.024 kg
Animal body weight (kg) Day 6 ([4]; 10 mg/kg, 10 mg/kg): 0.022 kg and 0.026 kg and 0.024 kg
Animal body weight (kg) Day 7 ([4]; 10 mg/kg, 10 mg/kg): 0.022 kg and 0.026 kg and 0.023 kg

Fc1ccc2[nH]cc(Sc3ccc(Br)cc3)c2c1 [Compound 174E, 3-((4-bromophenyl)thio)-5-fluoro-1H-indole]
MIC (Trichophyton rubrum): 2.01 µg/mL (≈ 6.24 µM)
EC50 (NoSpin HepaRG cells): 23.6 µg/mL (≈ 73.2 µM)
MBC (Bacillus subtilis): 3.13 µg/mL (≈ 9.71 µM)
MIC (Bacillus subtilis; [5]): 1.56 µg/mL (≈ 4.84 µM)
MBC (Bacillus thuringiensis): 3.13 µg/mL (≈ 9.71 µM)
MIC (Bacillus thuringiensis): 1.56 µg/mL (≈ 4.84 µM)
MIC [1]: > 50 µg/mL
MIC (Candida glabrata): 3.13 µg/mL (≈ 9.71 µM)
MIC [2]: 0.78 µg/mL (≈ 2.42 µM)
MIC (N. gonorrhoeae; strain #167): < 0.39 µg/mL
MIC (N. gonorrhoeae; strain #203): 1.56 µg/mL (≈ 4.84 µM)
MIC (N. gonorrhoeae; strain #205): 1.56 µg/mL (≈ 4.84 µM)
